Test results from patent US11629138B2, “Microbiocidal picolinamide derivatives” (Syngenta Participations AG, priority 2017, dated 2023).

Assays:
[1] = system: Mycosphaerella graminicola (Septoria tritici); experiment: Mycosphaerella graminicola (Septoria tritici) / liquid culture (Septoria blotch); assay type: cell-based; settings: Zymoseptoria tritici; 200 ppm in the formulation; PDB broth, 24° C., photometric, 4 to 5 days after application; vs untreated control; read-out: disease control (inhibition of growth)
Description: (§1) Mycosphaerella graminicola (Septoria tritici)/Liquid Culture (Septoria Blotch) Conidia of the fungus from cryogenic storage are directly mixed into nutrient broth (PDB potato dextrose broth). After placing a (DMSO) solution of test compound into a microtiter plate (96-well format), the nutrient broth containing the fungal spores is added. The test plates are incubated at 24° C. and the inhibition of growth is determined photometrically 4 to 5 days after application.

[2] = system: Puccinia recondita f. so. tritici; experiment: Puccinia recondita f. sp. tritici / wheat / leaf disc preventative (brown rust); assay type: in vivo; settings: foliar, 200 ppm in the formulation, wheat leaf segments cv. Kanzler, 7-9 days after application, vs untreated control, read-out: disease control
Description: Puccinia recondita f. so. tritici/Wheat/Leaf Disc Preventative (Brown Rust)
Wheat leaf segments cv. Kanzler are placed on agar in multiwell plates (24-well format) and sprayed with the formulated test compound diluted in water. The leaf disks are inoculated with a spore suspension of the fungus 1 day after application. The inoculated leaf segments are incubated at 19° C. and 75% rh under a light regime of 12 h light/12 h darkness in a climate cabinet and the activity of a compound is assessed as percent disease control compared to untreated when an appropriate level of disease damage appears in untreated check leaf segments (7-9 days after application).

[3] = system: Glomerella lagenarium (Colletotrichum lagenarium); experiment: Glomerella lagenarium (Colletotrichum lagenarium) / liquid culture (anthracnose); assay type: cell-based; settings: Colletotrichum orbiculare; 200 ppm in the formulation; PDB broth, 24° C., photometric, 3 to 4 days after application; vs untreated control; read-out: disease control (inhibition of growth)
Description: as §1, with “Glomerella lagenarium (Colletotrichum lagenarium)/Liquid” for “Mycosphaerella graminicola (Septoria tritici)/Liquid”, “(Anthracnose)” for “(Septoria Blotch)”, “measured” for “determined”, “photometrically 3 to” for “photometrically”, “4” for “4 to 5”

[4] = system: Phaeosphaeria nodorum (Setoria nodorum); experiment: Phaeosphaeria nodorum (Septoria nodorum) / wheat / leaf disc preventative (glume blotch); assay type: in vivo; settings: Parastagonospora nodorum, foliar, 200 ppm in the formulation, wheat leaf segments cv. Kanzler, 5-7 days after application, vs untreated control, read-out: disease control
Description: Phaeosphaeria nodorum (Setoria nodorum)/Wheat/Leaf Disc Preventative (Glume Blotch) Wheat leaf segments cv. Kanzler are placed on agar in a multiwell plate (24-well format) and sprayed with the formulated test compound diluted in water. The leaf disks are inoculated with a spore suspension of the fungus 2 days after application. The inoculated test leaf disks are incubated at 20° C. and 75% rh under a light regime of 12 h light/12 h darkness in a climate cabinet and the activity of a compound is assessed as percent disease control compared to untreated when an appropriate level of disease damage appears in untreated check leaf disks (5-7 days after application).

[5] = system: Magnaporthe grisea (Pyricularia oryzae); experiment: whole plant or invertebrate; assay type: in vivo; settings: foliar, read-out: disease control
[6] = system: Mycosphaerella arachidis (Cercospora arachidicola); experiment: Mycosphaerella arachidis (Cercospora arachidicola) / liquid culture (early leaf spot); assay type: cell-based; settings: 200 ppm in the formulation, PDB broth, 24° C., photometric, 4-5 days after application, vs untreated control, read-out: disease control (inhibition of growth)
Description: as §1, with “arachidis (Cercospora arachidicola)/Liquid” for “graminicola (Septoria tritici)/Liquid”, “(Early Leaf Soot)” for “(Septoria Blotch)”, “4-5” for “4 to 5”

[7] = system: Monographella nivalis (Microdochium nivale); experiment: Monographella nivalis (Microdochium nivale) / liquid culture (foot rot cereals); assay type: cell-based; settings: 200 ppm in the formulation, PDB broth, 24° C., photometric, 4-5 days after application, vs untreated control, read-out: disease control (inhibition of growth)
Description: as §1, with “Monographella nivalis (Microdochium nivale)/Liquid” for “Mycosphaerella graminicola (Septoria tritici)/Liquid”, “(Foot Rot Cereals)” for “(Septoria Blotch)”, “4-5” for “4 to 5”

[8] = system: Botryotinia fuckeliana (Botrytis cinerea); experiment: Botryotinia fuckeliana (Botrytis cinerea) liquid culture (gray mould); assay type: cell-based; settings: 200 ppm in the formulation, Vogels broth, 24° C., photometric, 3-4 days after application, vs untreated control, read-out: disease control (inhibition of growth)
Description: as §1, with “Botryotinia fuckeliana (Botrytis cinerea) Liquid” for “Mycosphaerella graminicola (Septoria tritici)/Liquid”, “(Gray Mould)” for “(Septoria Blotch)”, “(Vogels” for “(PDB potato dextrose”, “3-4” for “4 to 5”

Pythium ultimum = Pythium ultimum / liquid culture (seedling damping off); assay type: cell-based; settings: Globisporangium ultimum; 200 ppm in the formulation; PDB broth, 24° C., photometric, 2-3 days after application; vs untreated control; read-out: disease control (inhibition of growth)
Description: Pythium ultimum/Liquid Culture (Seedling Damping Off) Mycelia fragments and oospores of a newly grown liquid culture of the fungus are directly mixed into nutrient broth (PDB potato dextrose broth). After placing a (DMSO) solution of test compound into a microtiter plate (96-well format), the nutrient broth containing the fungal mycelia/spore mixture is added. The test plates are incubated at 24° C. and the inhibition of growth is determined photometrically 2-3 days after application.

COc1ccnc(C(=O)N[C@@H](C)C(=O)OC(C)C(C)n2ccc3c(Br)ccc(F)c32)c1OC(C)=O (stereo partly drawn) [I.ab.041, [2-(4-bromo-7-fluoro-indol-1-yl)-1-methyl-propyl] (2S)-2-[(3-acetoxy-4-methoxy-pyridine-2-carbonyl)amino]propanoate]
≥ 80%: inhibition at 200 ppm [1] | pest or weed control at 200 ppm [2] | inhibition at 200 ppm [3] | pest or weed control at 200 ppm [4] | pest or weed control at 200 ppm [5] | inhibition at 200 ppm [6]

COc1ccnc(C(=O)N[C@@H](C)C(=O)OC(C)C(C)c2ncc(Cl)cc2Cl)c1O (stereo partly drawn) [I.an.001, [2-(3,5-dichloro-2-pyridyl)-1-methyl-propyl] (2S)-2-[(3-hydroxy-4-methoxy-pyridine-2-carbonyl)amino] propanoate]
≥ 80%: inhibition at 200 ppm [1] | pest or weed control at 200 ppm [2] | inhibition at 200 ppm [3] | pest or weed control at 200 ppm [4] | pest or weed control at 200 ppm [5] | inhibition at 200 ppm [6]

COc1ccnc(C(=O)N[C@@H](C)C(=O)OC(C)C(C)c2ncc(Cl)cc2Cl)c1OCOC(=O)C(C)C (stereo partly drawn) [I.an.081, [2-[[(1S)-2-[2-(3,5-dichloro-2-pyridyl)-1-methyl-propoxy]-1-methyl-2-oxo-ethyl]carbamoyl]-4-methoxy-3-pyridyl]oxymethyl 2-methylpropanoate]
≥ 80%: inhibition at 200 ppm [1] | pest or weed control at 200 ppm [2] | pest or weed control at 200 ppm [4] | pest or weed control at 200 ppm [5] | inhibition at 200 ppm [7] | inhibition at 200 ppm [6]

COc1ccnc(C(=O)N[C@@H](C)C(=O)OC(C)C(C)c2ccc(Cl)s2)c1O (stereo partly drawn) [I.ar.001, [2-(5-chloro-2-thienyl)-1-methyl-propyl] (2S)-2-[(3-hydroxy-4-methoxy-pyridine-2-carbonyl)amino]propanoate]
≥ 80%: inhibition at 200 ppm [1] | pest or weed control at 200 ppm [2] | inhibition at 200 ppm [3] | pest or weed control at 200 ppm [5] | inhibition at 200 ppm [7] | inhibition at 200 ppm [6]

COc1ccnc(C(=O)N[C@@H](C)C(=O)OC(C)C(C)c2sc3ccccc3c2C)c1O (stereo partly drawn) [I.as.001, [1-methyl-2-(3-methylbenzothiophen-2-yl)propyl] (2S)-2-[(3-hydroxy-4-methoxy-pyridine-2-carbonyl)amino]propanoate]
≥ 80%: inhibition at 200 ppm [1] | pest or weed control at 200 ppm [2] | inhibition at 200 ppm [3] | pest or weed control at 200 ppm [4] | inhibition at 200 ppm [8] | pest or weed control at 200 ppm [5] | inhibition at 200 ppm [7] | inhibition at 200 ppm [6]

COc1ccnc(C(=O)N[C@@H](C)C(=O)OC(C)C(C)n2ccc3cccc(Br)c32)c1O (stereo partly drawn) [I.ba.001, [2-(7-bromoindol-1-yl)-1-methyl-propyl] (2S)-2-[(3-hydroxy-4-methoxy-pyridine-2-carbonyl)amino]propanoate]
≥ 80%: inhibition at 200 ppm [1] | pest or weed control at 200 ppm [2] | inhibition at 200 ppm [3] | pest or weed control at 200 ppm [4] | pest or weed control at 200 ppm [5] | inhibition at 200 ppm [7] | inhibition at 200 ppm [6]

COc1ccnc(C(=O)N[C@@H](C)C(=O)OC(C)C(C)n2ccc3c(Cl)ccc(Cl)c32)c1O (stereo partly drawn) [I.bb.001, [2-(4,7-dichloroindol-1-yl)-1-methyl-propyl] (2S)-2-[(3-hydroxy-4-methoxy-pyridine-2-carbonyl)amino] propanoate]
≥ 80%: inhibition at 200 ppm [1] | pest or weed control at 200 ppm [2] | inhibition at 200 ppm [3] | pest or weed control at 200 ppm [4] | pest or weed control at 200 ppm [5] | inhibition at 200 ppm [7] | inhibition at 200 ppm [6]

COc1ccnc(C(=O)N[C@@H](C)C(=O)OC(C)C(C)n2ccc3cc(Br)ccc32)c1O (stereo partly drawn) [I.bc.001, [2-(5-bromoindol-1-yl)-1-methyl-propyl] (2S)-2-[(3-hydroxy-4-methoxy-pyridine-2-carbonyl)amino]propanoate]
≥ 80%: inhibition at 200 ppm [1] | pest or weed control at 200 ppm [2] | inhibition at 200 ppm [3] | pest or weed control at 200 ppm [5] | inhibition at 200 ppm [7] | inhibition at 200 ppm [6]

COc1ccnc(C(=O)N[C@@H](C)C(=O)OC(C)C(C)n2ccc3c(F)ccc(Br)c32)c1O (stereo partly drawn) [I.bd.001, [2-(7-bromo-4-fluoro-indol-1-yl)-1-methyl-propyl] (2S)-2-[(3-hydroxy-4-methoxy-pyridine-2-carbonyl)amino]propanoate]
≥ 80%: inhibition at 200 ppm [1] | pest or weed control at 200 ppm [2] | inhibition at 200 ppm [3] | pest or weed control at 200 ppm [4] | pest or weed control at 200 ppm [5] | inhibition at 200 ppm [7] | inhibition at 200 ppm [6]

COc1ccnc(C(=O)N[C@@H](C)C(=O)OC(C)C(C)n2ccc3c(F)ccc(Br)c32)c1OC(C)=O (stereo partly drawn) [I.bd.041, [2-(7-bromo-4-fluoro-indol-1-yl)-1-methyl-propyl] (2S)-2-[(3-acetoxy-4-methoxy-pyridine-2-carbonyl)amino]propanoate]
≥ 80%: inhibition at 200 ppm [1] | pest or weed control at 200 ppm [2] | inhibition at 200 ppm [3] | pest or weed control at 200 ppm [4] | pest or weed control at 200 ppm [5] | inhibition at 200 ppm [7] | inhibition at 200 ppm [6]

COc1ccnc(C(=O)N[C@@H](C)C(=O)OC(C)C(C)c2nc3ccccc3s2)c1O (stereo partly drawn) [I.e.001, [2-(1,3-benzothiazol-2-yl)-1-methyl-propyl] (2S)-2-[(3-hydroxy-4-methoxy-pyridine-2-carbonyl)amino] propanoate]
≥ 80%: inhibition at 200 ppm [1] | pest or weed control at 200 ppm [2] | inhibition at 200 ppm [3] | inhibition at 200 ppm [8] | pest or weed control at 200 ppm [5] | inhibition at 200 ppm [7] | inhibition at 200 ppm [6]

COc1ccnc(C(=O)N[C@@H](C)C(=O)OC(C)C(C)n2ccc3cc(Cl)ccc32)c1O (stereo partly drawn) [I.y.001, [2-(5-chloroindol-1-yl)-1-methyl-propyl] (2S)-2-[(3-hydroxy-4-methoxy-pyridine-2-carbonyl)amino]propanoate]
≥ 80%: inhibition at 200 ppm (Pythium ultimum) | inhibition at 200 ppm [1] | pest or weed control at 200 ppm [2] | inhibition at 200 ppm [3] | inhibition at 200 ppm [8] | inhibition at 200 ppm [7] | inhibition at 200 ppm [6]
